Laboratory results taken from PubChem BioAssay AID1963843 (Molecular Pharmacology Branch, DTP, NCI, 2024).

System: 616215-338-R-J1-PDC complex spheroid viability
Test: Anticancer human tumor 616215-338-R-J1-PDC patient-derived colon adenocarcinoma cell line growth inhibition [POLQ]
Details: for IC50: curve of first compound; for viability, T/C: stronger effect = lower value
Procedure, shortened: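 Patient-derived tumour cells were co-cultured with HUVEC and mesenchymal stem cells as multicellular spheroids at 37 °C. They were treated with POLQ inhibitors (novobiocin, ART-558, RP6685) alone or combined with other agents. Top concentrations were at or near clinical Cmax (otherwise 10 microM; SN-38 at 1 microM), decreasing in half-log steps.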

[1] = second compound 0.0316 µM, first compound 0.0316 µM
[2] = second compound 0.0316 µM, first compound 0.1 µM
[3] = second compound 0.0316 µM, first compound 0.316 µM
[4] = second compound 0.0316 µM, first compound 1 µM
[5] = second compound 0.0316 µM, first compound 3.16 µM
[6] = second compound 0.0316 µM, first compound 10 µM
[7] = second compound 0.1 µM, first compound 0.0316 µM
[8] = second compound 0.1 µM, first compound 0.1 µM
[9] = second compound 0.1 µM, first compound 0.316 µM
[10] = second compound 0.1 µM, first compound 1 µM
[11] = second compound 0.1 µM, first compound 3.16 µM
[12] = second compound 0.1 µM, first compound 10 µM
[13] = second compound 0.316 µM, first compound 0.0316 µM
[14] = second compound 0.316 µM, first compound 0.1 µM
[15] = second compound 0.316 µM, first compound 0.316 µM
[16] = second compound 0.316 µM, first compound 1 µM
[17] = second compound 0.316 µM, first compound 3.16 µM
[18] = second compound 0.316 µM, first compound 10 µM
[19] = second compound 1 µM, first compound 0.0316 µM
[20] = second compound 1 µM, first compound 0.1 µM
[21] = second compound 1 µM, first compound 0.316 µM
[22] = second compound 1 µM, first compound 1 µM
[23] = second compound 1 µM, first compound 3.16 µM
[24] = second compound 1 µM, first compound 10 µM
[25] = second compound 3.16 µM, first compound 0.0316 µM
[26] = second compound 3.16 µM, first compound 0.1 µM
[27] = second compound 3.16 µM, first compound 0.316 µM
[28] = second compound 3.16 µM, first compound 1 µM
[29] = second compound 3.16 µM, first compound 3.16 µM
[30] = second compound 3.16 µM, first compound 10 µM
[31] = second compound 10 µM, first compound 0.0316 µM
[32] = second compound 10 µM, first compound 0.1 µM
[33] = second compound 10 µM, first compound 0.316 µM
[34] = second compound 10 µM, first compound 1 µM
[35] = second compound 10 µM, first compound 3.16 µM
[36] = second compound 10 µM, first compound 10 µM
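Further: spheroids exposed to compounds for one week before readout.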
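Wherever viability, T/C is given: percent viability relative to DMSO vehicle wells taken as 100%.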

For COc1cc2cc(C(=O)CCC(=O)O)sc2cc1OC + COC1C(OC(N)=O)C(O)C(Oc2ccc3c(O)c(NC(=O)c4ccc(O)c(CC=C(C)C)c4)c(=O)oc3c2C)OC1(C)C, the IC50 (second compound 0.0316 µM) was greater than 10 µM, the IC50 (second compound 0.1 µM) was greater than 10 µM and the IC50 (second compound 0.316 µM) was greater than 10 µM. For the same compound, the IC50 (second compound 1 µM) was greater than 10 µM, the IC50 (second compound 3.16 µM) was greater than 10 µM and the IC50 (second compound 10 µM) was greater than 10 µM. It also gave a viability, T/C [1] of 110%, a viability, T/C [2] of 103% and a viability, T/C [3] of 102%. The viability, T/C [4] was 105%, the viability, T/C [5] was 102% and the viability, T/C [6] was 113%. For the same compound, the viability, T/C [7] was 95.4%, the viability, T/C [8] was 101% and the viability, T/C [9] was 109%. It also gave a viability, T/C [10] of 97.7%, a viability, T/C [11] of 103% and a viability, T/C [12] of 97.2%. It also gave a viability, T/C [13] of 115%, a viability, T/C [14] of 94.9% and a viability, T/C [15] of 107%. For the same compound, the viability, T/C [16] was 95.1%, the viability, T/C [17] was 101% and the viability, T/C [18] was 101%. The viability, T/C [19] was 102%, the viability, T/C [20] was 88.2% and the viability, T/C [21] was 106%. The viability, T/C [22] was 98.7%, the viability, T/C [23] was 99.7% and the viability, T/C [24] was 106%. For the same compound, the viability, T/C [25] was 107%, the viability, T/C [26] was 99.9% and the viability, T/C [27] was 109%. It also gave a viability, T/C [28] of 102%, a viability, T/C [29] of 99.6% and a viability, T/C [30] of 113%. The viability, T/C [31] was 109%, the viability, T/C [32] was 91.7% and the viability, T/C [33] was 102%. The viability, T/C [34] was 104%, the viability, T/C [35] was 97% and the viability, T/C [36] was 102%.
COc1ccc([C@@H](O)c2cc(-c3ncnc4cc(N5CCOCC5)ccc34)c(F)cc2Cl)nn1 + COC1C(OC(N)=O)C(O)C(Oc2ccc3c(O)c(NC(=O)c4ccc(O)c(CC=C(C)C)c4)c(=O)oc3c2C)OC1(C)C showed an IC50 (second compound 0.0316 µM) greater than 10 µM, an IC50 (second compound 0.1 µM) greater than 10 µM and an IC50 (second compound 0.316 µM) greater than 10 µM. The IC50 (second compound 1 µM) was greater than 10 µM, the IC50 (second compound 3.16 µM) was greater than 10 µM and the IC50 (second compound 10 µM) was greater than 10 µM. For the same compound, the viability, T/C [1] was 109%, the viability, T/C [2] was 105% and the viability, T/C [3] was 110%. It also gave a viability, T/C [4] of 99.4%, a viability, T/C [5] of 105% and a viability, T/C [6] of 76.1%. The viability, T/C [7] was 109%, the viability, T/C [8] was 99% and the viability, T/C [9] was 109%. For the same compound, the viability, T/C [10] was 109%, the viability, T/C [11] was 113% and the viability, T/C [12] was 73.5%. It also gave a viability, T/C [13] of 107%, a viability, T/C [14] of 101% and a viability, T/C [15] of 108%. For the same compound, the viability, T/C [16] was 100%, the viability, T/C [17] was 114% and the viability, T/C [18] was 77.7%. For the same compound, the viability, T/C [19] was 96.7%, the viability, T/C [20] was 101% and the viability, T/C [21] was 116%. It also gave a viability, T/C [22] of 117%, a viability, T/C [23] of 110% and a viability, T/C [24] of 66.3%. For the same compound, the viability, T/C [25] was 95.7%, the viability, T/C [26] was 104% and the viability, T/C [27] was 100%. The viability, T/C [28] was 119%, the viability, T/C [29] was 108% and the viability, T/C [30] was 69.7%. The viability, T/C [31] was 104%, the viability, T/C [32] was 94.2% and the viability, T/C [33] was 111%. It also gave a viability, T/C [34] of 107%, a viability, T/C [35] of 110% and a viability, T/C [36] of 66.5%.
With Cn1ncnc1[C@H]1c2n[nH]c(=O)c3cc(F)cc(c23)N[C@@H]1c1ccc(F)cc1 + COC1C(OC(N)=O)C(O)C(Oc2ccc3c(O)c(NC(=O)c4ccc(O)c(CC=C(C)C)c4)c(=O)oc3c2C)OC1(C)C the IC50 (second compound 0.0316 µM) was greater than 0.1 µM, the IC50 (second compound 0.1 µM) was greater than 0.1 µM and the IC50 (second compound 0.316 µM) was greater than 0.1 µM. It also gave an IC50 (second compound 1 µM) greater than 0.1 µM, an IC50 (second compound 3.16 µM) greater than 0.1 µM and an IC50 (second compound 10 µM) greater than 0.1 µM. For the same compound, the viability, T/C (second compound 0.0316 µM, first compound 0.000316 µM) was 103%, the viability, T/C (second compound 0.0316 µM, first compound 0.001 µM) was 107% and the viability, T/C (second compound 0.0316 µM, first compound 0.00316 µM) was 105%. The viability, T/C (second compound 0.0316 µM, first compound 0.01 µM) was 107%, the viability, T/C [1] was 102% and the viability, T/C [2] was 102%. For the same compound, the viability, T/C (second compound 0.1 µM, first compound 0.000316 µM) was 97.2%, the viability, T/C (second compound 0.1 µM, first compound 0.001 µM) was 90.8% and the viability, T/C (second compound 0.1 µM, first compound 0.00316 µM) was 102%. It also gave a viability, T/C (second compound 0.1 µM, first compound 0.01 µM) of 103%, a viability, T/C [7] of 101% and a viability, T/C [8] of 109%. For the same compound, the viability, T/C (second compound 0.316 µM, first compound 0.000316 µM) was 95.5%, the viability, T/C (second compound 0.316 µM, first compound 0.001 µM) was 106% and the viability, T/C (second compound 0.316 µM, first compound 0.00316 µM) was 98.9%. The viability, T/C (second compound 0.316 µM, first compound 0.01 µM) was 104%, the viability, T/C [13] was 109% and the viability, T/C [14] was 95.9%. It also gave a viability, T/C (second compound 1 µM, first compound 0.000316 µM) of 106%, a viability, T/C (second compound 1 µM, first compound 0.001 µM) of 95.7% and a viability, T/C (second compound 1 µM, first compound 0.00316 µM) of 108%. For the same compound, the viability, T/C (second compound 1 µM, first compound 0.01 µM) was 105%, the viability, T/C [19] was 107% and the viability, T/C [20] was 104%. It also gave a viability, T/C (second compound 3.16 µM, first compound 0.000316 µM) of 109%, a viability, T/C (second compound 3.16 µM, first compound 0.001 µM) of 98.5% and a viability, T/C (second compound 3.16 µM, first compound 0.00316 µM) of 102%. It also gave a viability, T/C (second compound 3.16 µM, first compound 0.01 µM) of 101%, a viability, T/C [25] of 102% and a viability, T/C [26] of 105%. For the same compound, the viability, T/C (second compound 10 µM, first compound 0.000316 µM) was 105%, the viability, T/C (second compound 10 µM, first compound 0.001 µM) was 101% and the viability, T/C (second compound 10 µM, first compound 0.00316 µM) was 103%. For the same compound, the viability, T/C (second compound 10 µM, first compound 0.01 µM) was 117%, the viability, T/C [31] was 105% and the viability, T/C [32] was 97.1%.
